Experimental data published in US20260327211A1, “MODULATORS OF A POTASSIUM CHANNEL AND OF TRPV1 CHANNEL AND USES THEREOF” (Bsense Bio Therapeutics Ltd., priority 2023, published 2026).

Key:
[1] = test system: Post-operative Pain (POP) rats; assay: Post-operative Pain model, mechanical PWT; assay type: in vivo, rat; conditions: 100 mg/kg, 6 hours post-dose
Protocol: All animal experiments were carried out according to the Guide for the Care and Use of Laboratory Animals (2011 edition) and approved by the Israel National Institutional Animal Care and Use Committee (IACUC). Young adult male SD rats (Envigo RMS, Israel), were used for in vivo efficacy: Spared Nerve Injury (SNI), Distal Tibial Injury (DTI) and Post-operative Pain (POP), 200-220 grams, Chronic Post-Ischemia Pain (CPIP) 275-325 grams, Monosodium iodoacetate-induced osteoarthritis (MIA-OA) 180-220 grams; for in vivo safety: 200-250 grams at study initiation. […] The health status of the animals used in this study was examined upon their arrival. Only animals in good health were acclimatized to laboratory conditions and were used in the studies. All studies were performed following at least five days of animal acclimation. During acclimation and throughout the entire study duration, animals were housed within a limited-access rodent facility and kept in groups with a maximum of 2-3 rats per polypropylene cage. The cages were fitted with solid bottoms and filled with sterile wood shavings as bedding material. […] Water was monitored periodically. […]
Post-operative Pain (POP): For this model, animals were anesthetized by medetomidine/ketamine sodium IP. […] On the following day, animal responses to von Frey (VF) filaments and hot-plate testing were recorded. […]

[2] = Plasma protein binding, human; assay type: in vitro ADME; conditions: read-out: PPB fu (human)
Protocol: Incubation: Test compounds or the positive control warfarin were introduced into 10% plasma samples (Sourced from WuXi DMPK labs or from commercial vendors) to a concentration of 2 μM. A portion of 150 μL of the compound-containing plasma sample was added to one chamber of a 96-well equilibrium HTD dialysis plate. An equal volume of dialysis buffer was added to the corresponding chamber. A plasma sample was also taken before the incubation and designated as the T0 sample, serving for recovery calculation. The plate was incubated in a humidified 5% CO2 incubator at 37° C. for 4 hours. Each incubation was set up in triplicate.
Sample extraction and preparation: Following the incubation period, samples of 50 μL were drawn from both the plasma side and the buffer side and each was mixed with an equal volume of blank plasma. All matrix-matched samples were quenched using a stop solution containing an internal standard (IS).
Sample Analysis: The samples were subsequently analyzed by LC-MS/MS. The concentrations of the test compound in plasma and buffer samples were quantified based on the peak area ratio of analyte to the internal standard, with no requirement for a standard curve.

[3] = molecular target: OAT1 (Homo sapiens, UniProt Q4U2R8); assay: Transporter substrate, OAT1; assay type: in vitro ADME; conditions: role: substrate
Chain of OAT1 (Q4U2R8 whole entry): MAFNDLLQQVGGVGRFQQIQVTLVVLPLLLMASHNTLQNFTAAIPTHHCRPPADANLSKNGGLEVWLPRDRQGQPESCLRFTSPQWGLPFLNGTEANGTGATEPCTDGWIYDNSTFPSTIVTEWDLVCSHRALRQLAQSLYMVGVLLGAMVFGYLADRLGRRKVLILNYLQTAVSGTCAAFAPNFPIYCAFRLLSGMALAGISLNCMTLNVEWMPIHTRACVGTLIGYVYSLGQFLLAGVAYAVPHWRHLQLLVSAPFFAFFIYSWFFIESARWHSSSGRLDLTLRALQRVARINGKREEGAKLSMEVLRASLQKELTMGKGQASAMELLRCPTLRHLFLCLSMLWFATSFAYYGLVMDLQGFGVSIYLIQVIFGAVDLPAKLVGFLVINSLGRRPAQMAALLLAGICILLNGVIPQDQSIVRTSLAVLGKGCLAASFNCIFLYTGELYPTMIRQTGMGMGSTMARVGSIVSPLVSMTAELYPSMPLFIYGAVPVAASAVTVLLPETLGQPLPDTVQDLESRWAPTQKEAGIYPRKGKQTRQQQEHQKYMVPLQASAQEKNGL
Protocol: (§1) Additionally, compound 760 was tested for its capability to act as a transporter substrate for various transporters, and was not found to be a transporter substrate for any of the tested transporters.

[4] = molecular target: hERG (Homo sapiens, UniProt Q12809); assay: Functional selectivity panel, hERG; assay type: biochemical; set-up: Eurofins DiscoverX functional panel cells; conditions: up to 10 micromolar
Chain of hERG (Q12809 whole entry): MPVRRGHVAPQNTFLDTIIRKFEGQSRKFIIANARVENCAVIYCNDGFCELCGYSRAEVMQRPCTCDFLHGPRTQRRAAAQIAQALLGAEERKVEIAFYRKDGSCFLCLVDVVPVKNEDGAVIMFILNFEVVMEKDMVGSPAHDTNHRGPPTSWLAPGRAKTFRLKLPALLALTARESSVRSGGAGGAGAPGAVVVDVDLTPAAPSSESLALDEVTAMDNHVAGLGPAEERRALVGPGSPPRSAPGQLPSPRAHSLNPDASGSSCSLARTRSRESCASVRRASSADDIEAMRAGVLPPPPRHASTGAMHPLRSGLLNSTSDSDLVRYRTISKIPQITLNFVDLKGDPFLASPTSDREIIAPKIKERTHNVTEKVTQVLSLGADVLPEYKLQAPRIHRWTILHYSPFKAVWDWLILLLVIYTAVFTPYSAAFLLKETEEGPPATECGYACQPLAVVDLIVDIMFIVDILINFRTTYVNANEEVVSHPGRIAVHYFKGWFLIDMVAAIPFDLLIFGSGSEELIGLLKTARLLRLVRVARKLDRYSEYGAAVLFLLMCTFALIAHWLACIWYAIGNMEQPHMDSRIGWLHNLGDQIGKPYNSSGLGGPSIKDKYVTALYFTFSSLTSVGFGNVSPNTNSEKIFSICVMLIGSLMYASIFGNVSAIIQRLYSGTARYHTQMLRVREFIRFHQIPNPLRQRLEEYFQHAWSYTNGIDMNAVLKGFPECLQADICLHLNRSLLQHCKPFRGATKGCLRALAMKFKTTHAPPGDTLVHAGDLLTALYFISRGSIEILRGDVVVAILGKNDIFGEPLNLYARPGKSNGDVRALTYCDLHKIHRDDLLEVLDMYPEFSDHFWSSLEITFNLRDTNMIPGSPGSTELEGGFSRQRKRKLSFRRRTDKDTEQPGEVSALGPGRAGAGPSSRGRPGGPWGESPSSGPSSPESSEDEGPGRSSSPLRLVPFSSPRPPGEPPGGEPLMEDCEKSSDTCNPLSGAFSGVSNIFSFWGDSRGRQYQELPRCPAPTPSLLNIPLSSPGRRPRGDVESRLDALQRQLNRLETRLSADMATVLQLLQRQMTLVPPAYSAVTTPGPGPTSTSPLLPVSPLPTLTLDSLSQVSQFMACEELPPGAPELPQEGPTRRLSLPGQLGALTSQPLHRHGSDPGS
Protocol: (§2) A broad panel of 78 recombinant targets was tested for pharmacologic activity in vitro through a variety of functional assays (Eurofins DiscoverX, USA), as part of the National Institute of Neurological Disorders and Stroke (NINDS) Preclinical Screening Platform for Pain (PSPP) program. The biological targets for the in vitro profiling have been selected based on avoiding opioid receptor stimulation and targets known to be associated with adverse events or targeted by drugs of abuse. […] For each test, a reference compound was evaluated at the target of interest as a positive control.

[5] = molecular target: OCT2 (Homo sapiens, UniProt O15244); assay: Transporter substrate, OCT2; assay type: in vitro ADME; conditions: role: substrate
Chain of OCT2 (O15244 whole entry): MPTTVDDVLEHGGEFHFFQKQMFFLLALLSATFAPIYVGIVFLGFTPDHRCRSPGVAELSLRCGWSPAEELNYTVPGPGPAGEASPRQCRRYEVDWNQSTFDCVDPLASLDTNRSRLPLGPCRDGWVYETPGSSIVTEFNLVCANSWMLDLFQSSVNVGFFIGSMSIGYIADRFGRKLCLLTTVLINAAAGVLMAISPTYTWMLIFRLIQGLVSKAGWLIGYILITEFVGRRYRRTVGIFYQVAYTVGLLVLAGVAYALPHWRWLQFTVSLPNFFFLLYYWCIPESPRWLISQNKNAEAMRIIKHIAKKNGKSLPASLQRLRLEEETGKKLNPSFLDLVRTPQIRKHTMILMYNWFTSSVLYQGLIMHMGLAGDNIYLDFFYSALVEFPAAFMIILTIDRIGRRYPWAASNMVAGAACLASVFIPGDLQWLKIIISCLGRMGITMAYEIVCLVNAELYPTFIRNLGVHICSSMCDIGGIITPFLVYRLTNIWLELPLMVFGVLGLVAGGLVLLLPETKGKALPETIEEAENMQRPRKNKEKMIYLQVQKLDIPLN
Protocol: as §1

[6] = molecular target: P-gp (Homo sapiens, UniProt P08183); assay: Transporter substrate, P-gp; assay type: in vitro ADME; conditions: role: substrate
Chain of P-gp (P08183 whole entry): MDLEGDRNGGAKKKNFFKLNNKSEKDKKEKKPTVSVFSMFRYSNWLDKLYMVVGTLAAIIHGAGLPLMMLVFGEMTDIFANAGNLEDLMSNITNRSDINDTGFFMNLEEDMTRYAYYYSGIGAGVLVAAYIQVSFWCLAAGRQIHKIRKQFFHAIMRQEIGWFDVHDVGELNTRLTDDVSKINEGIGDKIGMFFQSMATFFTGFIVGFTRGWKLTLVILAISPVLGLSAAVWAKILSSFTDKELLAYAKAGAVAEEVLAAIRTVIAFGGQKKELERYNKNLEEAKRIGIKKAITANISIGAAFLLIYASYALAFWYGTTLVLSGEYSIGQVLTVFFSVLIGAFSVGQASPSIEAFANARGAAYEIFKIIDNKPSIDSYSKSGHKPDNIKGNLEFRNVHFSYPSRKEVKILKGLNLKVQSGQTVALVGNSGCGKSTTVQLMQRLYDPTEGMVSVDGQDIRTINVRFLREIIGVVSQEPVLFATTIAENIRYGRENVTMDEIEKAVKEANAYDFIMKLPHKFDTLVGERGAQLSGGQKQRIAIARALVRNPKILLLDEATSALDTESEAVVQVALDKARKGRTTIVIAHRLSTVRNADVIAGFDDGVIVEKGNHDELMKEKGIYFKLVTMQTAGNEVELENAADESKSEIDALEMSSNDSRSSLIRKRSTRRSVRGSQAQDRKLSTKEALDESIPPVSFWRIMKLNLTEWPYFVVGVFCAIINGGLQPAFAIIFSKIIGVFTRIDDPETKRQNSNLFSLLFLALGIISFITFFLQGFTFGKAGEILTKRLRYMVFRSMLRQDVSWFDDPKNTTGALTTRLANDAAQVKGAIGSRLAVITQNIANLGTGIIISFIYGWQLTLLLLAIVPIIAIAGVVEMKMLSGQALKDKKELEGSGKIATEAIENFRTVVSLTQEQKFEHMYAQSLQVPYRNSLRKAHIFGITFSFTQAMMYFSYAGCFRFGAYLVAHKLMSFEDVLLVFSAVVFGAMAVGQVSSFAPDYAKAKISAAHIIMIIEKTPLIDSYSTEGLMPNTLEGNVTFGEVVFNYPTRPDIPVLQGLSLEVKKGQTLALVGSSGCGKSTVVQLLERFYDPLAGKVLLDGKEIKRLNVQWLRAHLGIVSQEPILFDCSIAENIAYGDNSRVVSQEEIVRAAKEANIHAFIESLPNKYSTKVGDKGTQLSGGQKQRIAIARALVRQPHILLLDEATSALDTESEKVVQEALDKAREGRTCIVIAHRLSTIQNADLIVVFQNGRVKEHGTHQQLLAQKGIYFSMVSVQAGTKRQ
Protocol: as §1

[7] = test system: Cannabinoid CB1-2; assay: Functional screening panel, Cannabinoid CB1-2; assay type: biochemical; conditions: up to 10 micromolar
Protocol: as §2

[8] = test system: Dopamine D1-D5; assay: Functional screening panel, Dopamine D1-D5; assay type: biochemical; conditions: up to 10 micromolar
Protocol: as §2

[9] = molecular target: OATP1B1 (Homo sapiens, UniProt Q9Y6L6); assay: Transporter substrate, OATP1B1; assay type: in vitro ADME; conditions: role: substrate
Chain of OATP1B1 (Q9Y6L6 whole entry): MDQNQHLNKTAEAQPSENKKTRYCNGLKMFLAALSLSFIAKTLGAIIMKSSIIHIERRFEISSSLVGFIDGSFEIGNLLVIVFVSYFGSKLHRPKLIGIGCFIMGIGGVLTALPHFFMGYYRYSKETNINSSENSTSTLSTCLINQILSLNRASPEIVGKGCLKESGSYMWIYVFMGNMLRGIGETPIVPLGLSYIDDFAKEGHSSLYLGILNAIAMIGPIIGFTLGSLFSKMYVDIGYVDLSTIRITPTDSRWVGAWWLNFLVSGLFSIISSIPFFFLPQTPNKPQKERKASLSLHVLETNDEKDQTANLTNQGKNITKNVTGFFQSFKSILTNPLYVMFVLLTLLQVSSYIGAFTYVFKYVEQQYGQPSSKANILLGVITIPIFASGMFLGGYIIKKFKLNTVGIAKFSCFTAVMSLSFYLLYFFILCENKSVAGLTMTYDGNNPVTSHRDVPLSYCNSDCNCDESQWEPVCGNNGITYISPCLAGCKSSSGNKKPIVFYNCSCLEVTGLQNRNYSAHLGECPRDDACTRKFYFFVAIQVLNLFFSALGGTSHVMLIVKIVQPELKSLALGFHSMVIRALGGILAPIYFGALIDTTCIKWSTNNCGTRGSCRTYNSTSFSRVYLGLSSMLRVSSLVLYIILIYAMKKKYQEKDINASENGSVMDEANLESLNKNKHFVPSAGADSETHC
Protocol: as §1

[10] = molecular target: T1, nAChR(a4/b2) (Homo sapiens, UniProt P17787+P43681); assay: Functional selectivity panel, nAChR(a4/b2); assay type: biochemical; conditions: up to 10 micromolar
T1 construct: Eurofins DiscoverX functional panel cells
Protocol: as §2

[11] = molecular target: 5-HT1A (Homo sapiens, UniProt P08908); assay: Functional screening panel, 5-HT1A; assay type: biochemical; conditions: antagonist; read-out: IC/EC50 5-HT1A-antagonist
Chain of 5-HT1A (P08908 whole entry, species assumed): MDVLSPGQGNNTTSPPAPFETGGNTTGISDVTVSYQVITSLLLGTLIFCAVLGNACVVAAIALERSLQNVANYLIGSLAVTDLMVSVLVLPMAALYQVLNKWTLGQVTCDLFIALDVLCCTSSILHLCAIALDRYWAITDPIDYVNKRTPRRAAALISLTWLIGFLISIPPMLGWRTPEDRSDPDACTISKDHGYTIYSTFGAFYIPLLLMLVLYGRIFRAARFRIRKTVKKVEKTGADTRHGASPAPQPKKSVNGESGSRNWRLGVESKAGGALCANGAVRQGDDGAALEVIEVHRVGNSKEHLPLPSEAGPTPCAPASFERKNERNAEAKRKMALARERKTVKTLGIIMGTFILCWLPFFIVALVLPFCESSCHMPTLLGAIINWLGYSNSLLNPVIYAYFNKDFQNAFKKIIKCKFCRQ
Protocol: as §2

[12] = test system: 98 targets; assay: Functional screening panel, 98 targets

Compound: O=C(Cc1cncc(-n2cc(Cl)c3cc(Cl)cc(Cl)c32)c1)N[C@@H]1COC[C@H]1O [Compound 661]
- Mechanical PWT [1]: did not affect the mechanical PWT
- fraction unbound at 4 h, 2 µM [2]: 0.003

Compound: O=C(Cc1nccc(-n2cc(Cl)c3cc(Cl)cc(Cl)c32)n1)NC1COCC1O (stereo not drawn) [Compound 760]
- OAT1 substrate [3]: not a transporter substrate
- Effect on hERG [4]: no effect
- OCT2 substrate [5]: not a transporter substrate
- P-gp substrate [6]: not a transporter substrate or a poor substrate
- Effect on Cannabinoid CB1-2 [7]: no effect
- Effect on Dopamine D1-D5 [8]: no effect
- OATP1B1 substrate [9]: not a transporter substrate
- Effect on nAChR(a4/b2) [10]: no effect
- IC50 [11]: 30.4 µM
- Off-target effect profile [12]: clean off-target effect profile
